Test results published in patent US20140173781A1, “METHODS AND COMPOSITIONS FOR PRODUCING AND SELECTING TRANSGENIC WHEAT PLANTS” (PIONEER HI-BRED INTERNATIONAL, INC., priority 2012, published 2014).

Tests used:
Format in all cases: in vivo
[1] = tested on: maize inbred PHR03 plants; experiment: Glyphosate spray test on plants germinated from T1 mature corn seed; settings: glyphosate+surfactant at 2× or 4×
Source text: Immature embryos of maize inbred PHR03 were transformed with the excision vector AGL1/PHP54353, the expression of DsRed was visually confirmed, and T0 plantlets were regenerated as described in Example 5. Before moving the T0 plantlets to soil, the expression of DsRed was again visually confirmed.
To confirm that the natural desiccation process that occurs during seed maturation would in fact allow for the excision of DsRed and resistance to glyphosate, seeds collected from T0 plants crossed with wild-type PHR03 pollen were germinated in soil. By planting seeds straight to soil without any treatments, excision would be a result of natural processes.
Three random events were chosen to be tested by this method. Five mature T1 seeds each from the following events, PHP54353 T0 event numbers 6, 7, and 10 were placed in small pots with Metro Mix soil (Sun Gro Horticulture, McFarland, Calif.) with fertilizer and placed in the greenhouse. After plants had germinated and grown to about 12-18 cm (10-12 days after planting), the plants were then sprayed with glyphosate+surfactant at 2× or 4× concentration (1× is equivalent to what is used in the field). Before spraying, all pots were evenly spaced and positioned to ensure that they would receive an even distribution of glyphosate. The distance between the sprayer nozzle and the apical meristem of the plants was approximately 18 inches. Within 10-12 days, it was visibly evident which plants were not affected by the herbicide and which plants had been severely damaged.

tobacco seeds = experiment: Germination of tobacco T1 immature seeds on glyphosate medium; settings: 20-50 μM glyphosate; transgenic and nontransgenic tobacco seeds without desiccation treatment
Experimental: (§1) T1 immature seeds from transgenic tobacco plants are isolated, sterilized with 15% Clorox+2 drops of Tween 20 and rinsed with autoclaved water 3 times. Sterilized immature seeds are placed on sterile fiber glass filter paper in a Petri dish. The Petri dish is […] and with 20-50 μM glyphosate for selection. One to 2 weeks later, DsRed expression is checked in the emerging shoots. Immature seeds that have been properly desiccated have very weak or no DsRed expression as the gene is excised via the LoxP sites. […] Immature seeds that successfully underwent gene excision by desiccation will have glyphosate resistance and regenerate on medium containing 20-50 μM glyphosate.

soybean seeds = experiment: Germination of soybean T1 immature seeds on glyphosate medium; settings: 20-50 μM glyphosate; transgenic and nontransgenic soybean seeds without desiccation treatment
Experimental: as §1, with “immature pods” for “immature seeds”, “transgenic soybean” for “transgenic tobacco”, “are harvested,” for “are isolated,”, “times. Immature” for “times. Sterilized immature”, “are isolated from sterilized pods and” for “are”, “desiccated will” for “desiccated”

sugarcane plants = experiment: Glyphosate spray test on sugarcane T0 plantlets; settings: 4× glyphosate
Experimental: T0 plantlets were then moved to soil and spray tested with 4× glyphosate to confirm excision/glyphosate resistance. […] The final confirmation of stable transformation frequency is determined based on molecular analysis such as PCR and Southern blot hybridization.

For O=C(O)CNCP(=O)(O)O [glyphosate, N-phosphonomethylglycine], the “Glyphosate Spray Test” value ([1]; PHP54353 lab event 6 T1 plants, fraction of plants tolerant) was 2/4 plants tolerant, the “Glyphosate Spray Test” value ([1]; PHP54353 lab event 7 T1 plants) was 5/5 plants damaged and the “Glyphosate Spray Test” value ([1]; PHP54353 lab event 10 T1 plants) was 4/4 plants damaged. The “Glyphosate Spray Test” value ([1]; PHP54353 lab event 13 T1 plants, fraction of plants tolerant) was 2/5 plants tolerant, the “Glyphosate Spray Test” value ([1]; Wild-type PHR03 plants) was 4/4 plants damaged and the germination (tobacco seeds) was “completely inhibited”. The germination (soybean seeds) was “completely inhibited”, the Glyphosate Spray Test (sugarcane plants; independent T0 events (PHP54561, after excision) from 3 sugarcane cultivars) was “strong glyphosate resistance” and the Glyphosate Spray Test (sugarcane plants; plants of 3 nontransgenic sugarcane cultivars) was “completely killed”.
